Reference: patent US10961200B2, “Small molecule inhibitors of lactate dehydrogenase and methods of use thereof” (THE UNITED STATES OF AMERICA, AS REPRESENTED BY THE …, priority 2014, dated 2021)
Read-outs that look alike come from different tables or passages of the source.

Molecular target: Human LDHA (Homo sapiens (Human), UniProt P00338)
Test: human LDHA primary biochemical assay (resazurin/diaphorase coupled, fluorescence)
Source text: Test compounds were placed in a Greiner Bio-One (Monroe, N.C.) 1536-well black solid bottom assay plate. 200 millimolar (mM) Tris HCl, pH 7.4, 100 micromolar […] EDTA and 0.01% TWEEN-20™, final concentration, was used as the assay buffer. The LDHA reagent was 2 nanomolar (nM) Human LDHA (Meridian Life Science, Inc., Memphis, Tenn.), final concentration, in assay buffer.

[1] = LDHA inhibitory activity, assay of Example 1, activity level classes
[2] = read-out: Inhibitory activity IC50

| Compound | IC50 [1] | IC50 [2] |
| --- | --- | --- |
| COc1cccc(-c2cc(-c3c(Cc4ccc([S+](N)(=O)[O-])cc4)c(CC4CC4)nn3-c3nc(C(=O)O)cs3)ccc2F)c1 [Compound 236] | > 57000 nM |  |
| N[S+](=O)([O-])c1ccc(Cc2c(CC3CC3)nn(-c3nc(C(=O)O)cs3)c2-c2ccc(F)c(-c3cccc(F)c3)c2)cc1 [Compound 238] |  | 1000 to 57000 nM |
| NS(=O)(=O)c1ccc(Cc2c(-c3ccc(F)c(-c4ccc(F)cc4)c3)nn(-c3nc(C(=O)O)cs3)c2C(F)(F)F)cc1 [Compound 240] | < 100 nM |  |
| NS(=O)(=O)c1ccc(Cc2c(-c3ccc(F)c(-c4cccc(F)c4)c3)nn(-c3nc(C(=O)O)cs3)c2C(F)(F)F)cc1 [Compound 241] | < 100 nM |  |
| CCOC(=O)c1csc(-n2nc(-c3cccc(-c4ccccc4)c3)c(Cc3ccc(S(N)(=O)=O)cc3F)c2C2CC2)n1 [Compound 244] | > 57000 nM |  |
| CCOC(=O)c1csc(-n2nc(-c3ccc(F)c(-c4cccc(OC)c4)c3)c(Cc3ccc(S(N)(=O)=O)c(F)c3)c2C2CC2)n1 [Compound 248] | > 57000 nM |  |
| Cc1ccc(-c2cc(-c3nn(-c4nc(C(=O)O)cs4)c(C4CC4)c3Cc3ccc(S(N)(=O)=O)c(F)c3)ccc2F)cc1 [Compound 249] | < 100 nM |  |
| Cc1ccc(-c2cc(-c3nn(-c4nc(C(=O)O)cs4)c(C4CC4)c3Cc3ccc(S(N)(=O)=O)cc3F)ccc2F)cc1 [Compound 253] | < 100 nM |  |
| CC#Cc1cccc(-c2nn(-c3nc(C(=O)O)cs3)c(CC3CC3)c2Cc2ccc(S(N)(=O)=O)c(F)c2)c1 [Compound 270] | < 100 nM |  |
| C#Cc1c(Cc2ccc(S(N)(=O)=O)cc2)c(-c2ccccc2)nn1-c1nc(C(=O)O)cs1 [Compound 271] | 1000 to 57000 nM |  |
| CCOC(=O)c1csc(-n2nc(-c3ccccc3)c(Cc3ccc(S(N)(=O)=O)cc3)c2C2CC2)n1 [Compound 272] | > 57000 nM |  |
| COc1cc(-c2nn(-c3nc(C(=O)O)cs3)c(CC3CC3)c2Cc2ccc(S(N)(=O)=O)cc2)ccc1F [Compound 278] | < 100 nM |  |

The remaining lines, values ahead:

| IC50 [1] | IC50 [2] | Compound |
| --- | --- | --- |
| < 100 nM |  | COc1cccc(-c2cc(-c3nn(-c4nc(C(=O)O)cs4)c(C(F)(F)F)c3Cc3ccc(S(N)(=O)=O)cc3)ccc2F)c1 [Compound 242] |
| < 100 nM |  | Cc1ccc(-c2cc(-c3nn(-c4nc(C(=O)O)cs4)c(C(F)(F)F)c3Cc3ccc(S(N)(=O)=O)cc3)ccc2F)cc1 [Compound 243] |
| 1000 to 57000 nM |  | CCOC(=O)c1csc(-n2nc(-c3ccc(F)c(-c4ccc(C)cc4)c3)c(Cc3ccc(S(N)(=O)=O)c(F)c3)c2C2CC2)n1 [Compound 245] |
| 1000 to 57000 nM |  | CCOC(=O)c1csc(-n2nc(-c3ccc(F)c(-c4ccc(F)cc4)c3)c(Cc3ccc(S(N)(=O)=O)c(F)c3)c2C2CC2)n1 [Compound 246] |
| 1000 to 57000 nM |  | CCOC(=O)c1csc(-n2nc(-c3ccc(F)c(-c4cccc(F)c4)c3)c(Cc3ccc(S(N)(=O)=O)c(F)c3)c2C2CC2)n1 [Compound 247] |
| < 100 nM |  | NS(=O)(=O)c1ccc(Cc2c(-c3ccc(F)c(-c4ccc(F)cc4)c3)nn(-c3nc(C(=O)O)cs3)c2C2CC2)cc1F [Compound 250] |
| < 100 nM |  | NS(=O)(=O)c1ccc(Cc2c(-c3ccc(F)c(-c4ccc(F)cc4)c3)nn(-c3nc(C(=O)O)cs3)c2C2CC2)c(F)c1 [Compound 254] |
| < 100 nM |  | NS(=O)(=O)c1ccc(Cc2c(-c3ccc(F)c(-c4cccc(F)c4)c3)nn(-c3nc(C(=O)O)cs3)c2C2CC2)c(F)c1 [Compound 255] |
| < 100 nM |  | COc1cccc(-c2cc(-c3nn(-c4nc(C(=O)O)cs4)c(C4CC4)c3Cc3ccc([S+](N)(=O)[O-])cc3F)ccc2F)c1 [Compound 256] |
| > 57000 nM |  | CCOC(=O)c1csc(-n2nc(C3CCCCC3)c(Oc3ccc([S+](N)(=O)[O-])cc3)c2-c2ccccc2)n1 [Compound 273] |
| > 57000 nM |  | CCOC(=O)c1csc(-n2nc(-c3ccccc3)c(Oc3ccc([S+](N)(=O)[O-])cc3)c2C2CCCCC2)n1 [Compound 274] |
|  | 1000 to 57000 nM | N[S+](=O)([O-])c1ccc(Cc2c(Cc3ccccc3)nn(-c3nc(C(=O)O)cs3)c2-c2ccccc2)cc1 [Compound 275] |
|  | 1000 to 57000 nM | COc1cc(-c2c(Cc3ccc([S+](N)(=O)[O-])cc3)c(CC3CC3)nn2-c2nc(C(=O)O)cs2)ccc1F [Compound 277] |
